Source: patent US8586622B2, “Laminin-332 product on stimulating composition” (Shiseido Company, Ltd., priority 2009, dated 2013)
Like-named read-outs stand apart in the source and are kept apart here.

How the values were obtained:
[1] = test system: laminin-332 production in HaCaT cells; assay: Laminin-332 production in HaCaT cells (sandwich ELISA, relative to cell number), Example 1; format: cell-based, human; conditions: 1 μM; for relative value of laminin-332 concentration compared to the number of cells: 24 hours, negative control 0.04
Protocol: (§1) After completing the cell culture, culture medium was collected and centrifuged at 3000 rpm for five minutes. Concentration of laminin-332 in the supernatant was measured by ELISA (Amano, S., et al., J. Immunol. Methods, 224:161 (1999)). The ELISA used was sandwich type which utilizes biotinylated conjugate of BM165, i.e., a monoclonal antibody against α (alpha) 3 chain of laminin-5, and 6F12, i.e., a monoclonal antibody against β (beta)3 chain of laminin-5, and detection was carried out by utilizing avidin D labeled with a horseradish peroxidase (Vector Laboratories, Catalogue No. A-2004). PBS was used as a control.
The vertical line of the graph in FIG. 5 represents, the relative values of laminin-332 concentration compared to the number of cells that are present in culture supernatant in each well. The error bars for each experimental condition indicate the standard deviations of experimentally measured values obtained by repeating the experiment three times under the identical condition.

[2] = test system: laminin-332 production in HaCaT cells; assay: Laminin-332 concentration in HaCaT culture supernatant after addition of various amino acids, Example 2; format: cell-based, human; conditions: for effect on stimulating production of laminin-332 (conclusion in words): Examples 1 and 2, KC and HaCaT cells; for concentration of laminin-332 in the culture supernatant / stimulation of the production of laminin-332 (in words): HaCaT cells; for concentration of laminin-332 in the culture supernatant: 24 hours, negative control 1.5-1.8 ng/mL; for stimulation of the production of laminin-332 (in words): 10 nM, 100 nM, 1000 nM
Protocol: as §1
Cell culture was carried out in the same manner as the Example 1 by using HaCaT cells. After that, the medium was switched to the standard medium added with amino acids such as L- or D-alanine, L- or D-hydroxyproline, L- or D-aspartic acid, L- or D-asparagine, L- or D-proline, or L- or D-serine with the concentration of 10 nM, 100 nM, or 1000 nM, and cultured for 24 hours. The standard medium to which no amino acid had been added was used as a negative control. […] The production amount of laminin-332 was measured in the same manner as the Example 1.
The vertical line of the graph in FIG. 7 represents the concentrations (ng/mL) of laminin-332 in the culture supernatant in each well. The error bars for each experimental condition indicate the standard deviations of experimentally measured values obtained by repeating the experiment four times under the identical condition.

HaCaT cells = assay: Quantification of number of viable HaCaT cells (alamarBlue); conditions: for fluorescence intensity of alamarBlue: 1 μM
Protocol: (§2) Human epidermal-derived HaCaT cells (H. Hans, et al., Experimental Cell Research, 239:399 (1998)) and human keratinocyte-derived KC cells (Sanko Junyaku Co., Ltd., manufacturer: LONZA Walkersville Inc.) were used. The cells were inoculated to a 24-well plate to have 4×10^4 cells per well. The cells were then cultured for 24 hours in a medium for cell culture (D-MEM (1 g/L glucose), manufactured by Wako Pure Chemical Industries, Ltd.) to which 0.1% bovine serum albumin (BSA) is supplemented (hereinafter, referred to as a “standard medium”) in a 5% CO2 and saturated water vapor atmosphere at 37° C. (degrees Celsius).
(§3) D-hydroxyproline used in this example was 4-cis-D-hydroxyproline.
(§4) After collecting the culture medium, the cells were washed with PBS and added with alamarBlue (trademark: Biosource International, Inc.) to have final concentration of 10%. Two hours later, according to the methods by Ahmed S. A. et al., (J. Immunol. Method., 170, 211-224 (1994)) and the instructions provided by the manufacturer, fluorescent intensity of the alamarBlue solution was measured with excitation wavelength of 544 nm and emission wavelength of 590 nm.

KC cells = assay: Quantification of number of viable KC cells (alamarBlue); format: cell-based, human; conditions: for relative fluorescence intensity of alamarBlue: 1 μM, 24 hours, negative control 50; for cytotoxicity against KC cells: alamarBlue, no significant difference to negative control by Tukey-Kramer's test
Protocol: as §2, §3, §4

[3] = test system: laminin-332 production in KC cells; assay: Laminin-332 production in KC cells (sandwich ELISA of culture supernatant, relative to cell number); format: cell-based, human; conditions: 1 μM; for relative value of laminin-332 concentration compared to the number of cells: 24 hours, negative control 0.35
Protocol: as §2, §3
PBS was used as a control.
as §4

[4] = HaCaT cells, 24 hours, negative control 300
[5] = HaCaT cells, alamarBlue, no significant difference to negative control by Tukey-Kramer's test

| SMILES | relative value of laminin-332 concentration compared to the number of cells [1] | effect on stimulating production of laminin-332 (conclusion in words) [2] | concentration of laminin-332 in the culture supernatant ([2]; amino acid 10 nM) | concentration of laminin-332 in the culture supernatant ([2]; amino acid 100 nM) | concentration of laminin-332 in the culture supernatant ([2]; amino acid 1000 nM) | fluorescence intensity of alamarBlue (HaCaT cells; [4]) | cytotoxicity for HaCaT cells (HaCaT cells; [5]) | relative fluorescence intensity of alamarBlue (KC cells) | cytotoxicity against KC cells (KC cells) | stimulation of laminin-332 production in HaCaT cells (in words) ([1]; p less than 1% vs negative control by Scheffe's F test) | relative value of laminin-332 concentration compared to the number of cells [3] | stimulation of laminin-332 production in KC cells (in words) ([3]; p less than 1% vs negative control by Tukey-Kramer's test) | cytotoxicity for HaCaT cells (HaCaT cells) | fluorescence intensity of alamarBlue (HaCaT cells; human, 24 h) | stimulation of the production of laminin-332 (in words) [2] |
| --- | --- | --- | --- | --- | --- | --- | --- | --- | --- | --- | --- | --- | --- | --- | --- |
| O=C(O)[C@H]1C[C@@H](O)CN1 (relative stereo) [D-hydroxyproline, 4-cis-D-hydroxyproline] | 0.065 | effect on stimulating production of laminin-332 was observed | 1.5 ng/mL | 3.3 ng/mL | 4.4 ng/mL | 280 | no cytotoxicity |  |  |  |  |  |  |  |  |
| C[C@@H](N)C(=O)O [D-alanine] | 0.11 | effect on stimulating production of laminin-332 was observed | 1.7 ng/mL | 3.4 ng/mL | 4.8 ng/mL |  |  | 45 | no cytotoxicity | stimulated production of laminin-332 | 0.50 | stimulated production of laminin-332 | no cytotoxicity | 250 |  |
| NC(=O)C[C@@H](N)C(=O)O [D-asparagine] |  |  | 1.5 ng/mL | 1.5 ng/mL | 1.5 ng/mL |  |  |  |  |  |  |  |  |  | do not stimulate the production of laminin-332 |
| N[C@H](CC(=O)O)C(=O)O [D-aspartic acid] |  |  | 1.9 ng/mL | 1.9 ng/mL | 1.7 ng/mL |  |  |  |  |  |  |  |  |  | do not stimulate the production of laminin-332 |
| O=C(O)[C@H]1CCCN1 [D-proline] |  |  | 2.0 ng/mL | 1.9 ng/mL | 1.9 ng/mL |  |  |  |  |  |  |  |  |  | do not stimulate the production of laminin-332 |
| N[C@H](CO)C(=O)O [D-serine] |  |  | 1.8 ng/mL | 1.8 ng/mL | 1.8 ng/mL |  |  |  |  |  |  |  |  |  | do not stimulate the production of laminin-332 |
| C[C@H](N)C(=O)O [L-alanine] | 0.07 |  | 1.7 ng/mL | 2.3 ng/mL | 2.8 ng/mL |  |  | 40 | no cytotoxicity |  | 0.40 |  | no cytotoxicity | 250 |  |
| NC(=O)C[C@H](N)C(=O)O [L-asparagine] |  |  | 1.6 ng/mL | 1.5 ng/mL | 1.6 ng/mL |  |  |  |  |  |  |  |  |  | do not stimulate the production of laminin-332 |
| N[C@@H](CC(=O)O)C(=O)O [L-aspartic acid] |  |  | 1.8 ng/mL | 1.8 ng/mL | 2.0 ng/mL |  |  |  |  |  |  |  |  |  | do not stimulate the production of laminin-332 |
| O=C(O)[C@@H]1C[C@@H](O)CN1 [L-hydroxyproline] | 0.05 |  | 1.5 ng/mL | 2.3 ng/mL | 2.7 ng/mL | 280 | no cytotoxicity |  |  |  |  |  |  |  |  |
| O=C(O)[C@@H]1CCCN1 [L-proline] |  |  | 1.8 ng/mL | 1.9 ng/mL | 1.9 ng/mL |  |  |  |  |  |  |  |  |  | do not stimulate the production of laminin-332 |
| N[C@@H](CO)C(=O)O [L-serine] |  |  | 1.8 ng/mL | 1.9 ng/mL | 1.9 ng/mL |  |  |  |  |  |  |  |  |  | do not stimulate the production of laminin-332 |
